Results reported in ChEMBL document CHEMBL4765470 (J Med Chem, 2021).
Starred links: 1 amine or outer side, 2 acyl side, 3 side chain; linkers in the order of their positions; H or OH if unused. Non-standard residues stand in square brackets, D forms with d. Residues, ends and D or L forms follow the SMILES beside them. γ4hPhe = O=C(CC[C@H](Cc1ccccc1)N[*:1])[*:2]; 2Nal = N[C@@H](Cc1ccc2ccccc2c1)C(=O)O; β3hF = N[C@H](CC(=O)O)Cc1ccccc1; Cha = N[C@@H](CC1CCCCC1)C(=O)O; Nle = CCCC[C@H](N)C(=O)O

Experiments:
Apelin receptor [1] = molecular target: T1, Apelin receptor (Homo sapiens, UniProt P35414); test: Agonist activity at human APJ receptor expressed in HEK293T cells co-expressing PDZ-Rho-Gef-RLucll assessed as induction of Galpha12 effector (PDZ-RhoGEF) to the cell membrane incubated for 5 mins by BRET assay; type: functional, cell-based
T1 sequence (P35414 whole entry): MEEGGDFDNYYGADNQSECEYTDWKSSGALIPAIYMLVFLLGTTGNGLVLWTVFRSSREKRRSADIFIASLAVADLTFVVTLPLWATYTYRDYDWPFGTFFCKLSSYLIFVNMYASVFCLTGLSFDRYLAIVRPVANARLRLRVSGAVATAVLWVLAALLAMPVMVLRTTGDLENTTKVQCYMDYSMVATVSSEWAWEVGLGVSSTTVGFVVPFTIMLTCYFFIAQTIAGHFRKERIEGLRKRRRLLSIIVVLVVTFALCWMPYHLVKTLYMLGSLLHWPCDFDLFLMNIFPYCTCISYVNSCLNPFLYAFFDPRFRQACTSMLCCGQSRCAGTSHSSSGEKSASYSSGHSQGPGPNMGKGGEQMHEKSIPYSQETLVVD

Apelin receptor [2] = molecular target: T1, Apelin receptor; test: Agonist activity at human APJ receptor expressed in HEK293 cells co-expressing Rlucll-beta-arrestin2 assessed as induction of beta-arrestin2 recruitment to APJ incubated for 30 mins by BRET assay; type: cell-based
Apelin receptor [3] = molecular target: T1, Apelin receptor; test: Agonist activity at human APJ receptor expressed in HEK293 cells co-expressing Galpha(i1)-RlucII(91) assessed as induction of dissociation of Galpha(i1) from G-beta-gamma subunits incubated for 5 mins by BRET assay; type: cell-based
[4] = molecular target: T2, Apelin receptor (Homo sapiens) (UniProt P35414); test: Agonist activity at human APJ receptor expressed in HEK293 cells co-expressing […] assessed as induction of Galpha12 effector (PDZ-RhoGEF) to the cell membrane incubated for 5 mins by BRET assay relative to control; type: functional, cell-based; settings: filed as agonist
T2 sequence (whole entry): T1 sequence (P35414 whole entry)

Apelin receptor [5] = molecular target: T1, Apelin receptor; test: Displacement of [125I] [NIe75, Tyr77]Pyr-apelin-13 from YFP-tagged human APJ receptor expressed in HEK293 cell membranes incubated for 1 hr by gamma counting based Cheng-Prusoff equation analysis
Rattus norvegicus [6] = test: Cardiorenal effect in Sprague-Dawley rat assessed as water intake level at 9.9 nmol/kg/hr dosed by continuous infusion via osmotic mini pumps […] (reference value: 3.3 mL/kg/hr); type: functional
[7] = Cardiorenal effect in Sprague-Dawley rat assessed as reduction in blood pressure at 5 nmol/kg, iv […]; type: organism-based; settings: in vivo
Rattus norvegicus [8] = test: Cardiorenal effect in Sprague-Dawley rat assessed as urinary output level at 9.9 nmol/kg/hr dosed by continuous infusion via osmotic mini pumps […] (reference value: 1.3 mL/kg/hr); type: functional
Rattus norvegicus [9] = test: Cardiorenal effect in Sprague-Dawley rat assessed as increase left ventricular fractional shortening at 9.9 nmol/kg/hr dosed by continuous infusion via osmotic mini pumps measured after 6 hrs by echocardiography relative to base line in sham treated control; type: functional
Rattus norvegicus [10] = test: Cardiorenal effect in Sprague-Dawley rat assessed as increase left ventricular fractional shortening at 9.9 nmol/kg/hr dosed by continuous infusion via osmotic mini pumps measured after 24 hrs by echocardiography relative to base line in sham treated control; type: functional
[11] = Cardiorenal effect in Sprague-Dawley rat assessed as reduction in blood pressure at 72 nmol/kg, iv […]; type: organism-based; settings: in vivo

| Compound | EC50 (Apelin receptor [1]) | EC50 (Apelin receptor [2]) | EC50 (Apelin receptor [3]) | Emax [4] | Ki (Apelin receptor [5]) | Activity (Rattus norvegicus [6]) | Activity [7] | Activity (Rattus norvegicus [8]) | Activity (Rattus norvegicus [9]) | Activity (Rattus norvegicus [10]) | Activity [11] |
| --- | --- | --- | --- | --- | --- | --- | --- | --- | --- | --- | --- |
| CCCC[C@H](N)C(=O)N1CCC[C@H]1C(=O)N[C@@H](CC(C)C)C(=O)N[C@@H](Cc1cnc[nH]1)C(=O)N[C@@H](CO)C(=O)N[C@@H](CCCNC(=N)N)C(=O)N[C@H](C(=O)N1CCC[C@H]1C(=O)N[C@@H](Cc1ccc2ccccc2c1)C(=O)N1CCC[C@H]1C(=O)O)C(C)C (H-[Nle]PLHSRVP[2Nal]P-OH) | 152 nM | 155 nM | 7 nM |  | 16 nM |  |  |  |  |  |  |
| CCCC[C@H](N)C(=O)N1CCC[C@H]1C(=O)N[C@@H](CC(C)C)C(=O)N[C@@H](Cc1cnc[nH]1)C(=O)N[C@@H](CO)C(=O)N[C@@H](CCCNC(=N)N)C(=O)N[C@H](C(=O)N1CCC[C@H]1C(=O)N[C@H](CC(=O)O)Cc1ccccc1)C(C)C (H-[Nle]PLHSRVP[β3hF]-OH) | 740 nM | 182 nM | 5.1 nM |  | 19 nM |  |  |  |  |  |  |
| CCCC[C@H](N)C(=O)N1CCC[C@H]1C(=O)N[C@@H](CC(C)C)C(=O)N[C@@H](Cc1cnc[nH]1)C(=O)N[C@@H](CO)C(=O)N[C@@H](CCCNC(=N)N)C(=O)N[C@H](C(=O)N1CCC[C@H]1C(=O)N[C@@H](Cc1ccccc1)C(=O)N1CCC[C@H]1C(=O)O)C(C)C |  |  |  |  |  | 4.5 mL/h/kg |  | 2.7 mL/h/kg | 11% | 19% | Non-Toxic |
| CCCC[C@H](N)C(=O)N1CCC[C@H]1C(=O)N[C@H](C(=O)N[C@@H](Cc1cnc[nH]1)C(=O)N[C@@H](CO)C(=O)N[C@@H](CCCNC(=N)N)C(=O)N[C@H](C(=O)N1CCC[C@H]1C(=O)N[C@@H](Cc1ccccc1)C(=O)N1CCC[C@H]1C(=O)O)C(C)C)[C@@H](C)CC (H-[Nle]PIHSRVPFP-OH) | 141 nM | 370 nM | 5.8 nM |  | 16 nM |  |  |  |  |  |  |
| CCCC[C@H](N)C(=O)N1CCC[C@H]1C(=O)N[C@@H](CC(C)C)C(=O)N[C@@H](Cc1cnc[nH]1)C(=O)N[C@@H](CO)C(=O)N[C@@H](CCCNC(=N)N)C(=O)N[C@H](C(=O)N1CCC[C@H]1C(=O)N[C@H](CCC(=O)O)Cc1ccccc1)C(C)C (H-[Nle]PLHSRVP-γ4hPhe) | 198 nM | 175 nM | 5.8 nM |  | 8.9 nM |  |  |  |  |  |  |
| CCCC[C@H](N)C(=O)N1CCC[C@H]1C(=O)N[C@@H](CC(C)C)C(=O)N[C@@H](Cc1cnc[nH]1)C(=O)N[C@@H](CO)C(=O)N[C@@H](CCCNC(=N)N)C(=O)N[C@@H](Cc1ccccc1)C(=O)N1CCC[C@H]1C(=O)N[C@@H](Cc1ccccc1)C(=O)N1CCC[C@H]1C(=O)O (H-[Nle]PLHSRFPFP-OH) | 314 nM | 533 nM | 14 nM |  | 18 nM |  |  |  |  |  |  |

Further lines, with some results ahead:

| EC50 (Apelin receptor [1]) | EC50 (Apelin receptor [2]) | EC50 (Apelin receptor [3]) | Emax [4] | Ki (Apelin receptor [5]) | Compound | Activity (Rattus norvegicus [6]) | Activity [7] | Activity (Rattus norvegicus [8]) | Activity (Rattus norvegicus [9]) | Activity (Rattus norvegicus [10]) | Activity [11] |
| --- | --- | --- | --- | --- | --- | --- | --- | --- | --- | --- | --- |
| 54 nM | 940 nM | 17 nM | 43% | 4 nM | CCCC[C@H](N)C(=O)N1CCC[C@H]1C(=O)N[C@@H](CC(C)C)C(=O)N[C@@H](Cc1cnc[nH]1)C(=O)N[C@@H](CO)C(=O)N[C@@H](CCCNC(=N)N)C(=O)N[C@H](C(=O)N1CCC[C@H]1C(=O)N[C@@H](CC1CCCCC1)C(=O)N1CCC[C@H]1C(=O)O)C(C)C (H-[Nle]PLHSRVP[Cha]P-OH) |  |  |  |  |  |  |
| 128 nM | 151 nM | 4 nM |  | 9.3 nM | CCCC[C@H](N)C(=O)N1CCC[C@H]1C(=O)N[C@@H](CC(C)C)C(=O)N[C@@H](Cc1cnc[nH]1)C(=O)N[C@@H](CO)C(=O)N[C@@H](CCCNC(=N)N)C(=O)N[C@H](C(=O)N1CCC[C@H]1C(=O)N[C@@H](CCc1ccccc1)C(=O)N1CCC[C@H]1C(=O)O)C(C)C |  |  |  |  |  |  |
| 25 nM | 45 nM | 5.3 nM |  | 0.19 nM | CSCC[C@H](NC(=O)[C@@H](NC(=O)[C@H](CC(C)C)NC(=O)[C@H](CC(N)=O)NC(=O)[C@@H](NC(=O)[C@@H]1CCCN1C(=O)[C@H](CCCNC(=N)N)NC(=O)[C@@H]1CCC(=O)N1)C(C)C)[C@@H](C)O)C(=O)N[C@@H](C)C(=O)N[C@@H](CCCNC(=N)N)C(=O)N[C@@H](CCCCN)C(=O)N[C@@H](CC(C)C)C(=O)N[C@@H](CCCNC(=N)N)C(=O)N[C@@H](CCCCN)C(=O)N[C@@H](Cc1cnc[nH]1)C(=O)N[C@@H](CC(N)=O)C(=O)N[C@H]1CSSC[C@@H](C(=O)N[C@@H](CCSC)C(=O)N2CCC[C@H]2C(=O)N[C@@H](CC(C)C)C(=O)N[C@@H](Cc2cnc[nH]2)C(=O)N[C@@H](CO)C(=O)N[C@@H](CCCNC(=N)N)C(=O)N[C@H](C(=O)N2CCC[C@H]2C(=O)N[C@@H](Cc2ccccc2)C(=O)N2CCC[C@H]2C(=O)O)C(C)C)NC(=O)[C@H](CCCNC(=N)N)NC(=O)[C@H](CCCNC(=N)N)NC(=O)[C@H](CCC(N)=O)NC(=O)[C@H](CC(C)C)NC1=O | 5 mL/h/kg | <= 40 mmHg | 3.5 mL/h/kg | 18% | 27% |  |
| 37 nM | 107 nM | 3.8 nM |  | 3.9 nM | CCCC[C@H](N)C(=O)N1CCC[C@H]1C(=O)N[C@@H](CC(C)C)C(=O)N[C@@H](Cc1cnc[nH]1)C(=O)N[C@@H](CO)C(=O)N[C@@H](CCCNC(=N)N)C(=O)N[C@H](C(=O)N1CCC[C@H]1C(=O)N[C@@H](Cc1ccccc1)C(=O)N[C@@H](Cc1ccc2ccccc2c1)C(=O)O)C(C)C (H-[Nle]PLHSRVPF[2Nal]-OH) |  |  |  |  |  |  |
